Measurements published in ChEMBL document CHEMBL3758091, “Identification of N-(6-mercaptohexyl)-3-(4-pyridyl)-1H-pyrazole-5-carboxamide and its disulfide prodrug as potent histone deacetylase inhibitors with in vitro and in vivo anti-tumor efficacy” (Eur J Med Chem, 2016).

Tests used:
cells [1] = format: functional; conditions: Homo sapiens, PC-3, 96 h
Description: Growth inhibition of human PC3 cells after 96 hrs by MTT assay

Histone deacetylase 3 = Histone deacetylase 3 (Homo sapiens, UniProt O15379); test: Inhibition of recombinant human HDAC3 using Boc-Lys(Ac)-AMC as substrate preincubated for 15 mins followed by substrate addition measured after 60 mins by fluorescence-based assay
Histone deacetylase 8 = biological target: T1, Histone deacetylase 8 (Homo sapiens, UniProt Q9BY41); test: Inhibition of recombinant human HDAC8 using Boc-Lys(TFA)-AMC as substrate preincubated for 15 mins followed by substrate addition measured after 60 mins by fluorescence-based assay
T1 sequence (Q9BY41 whole entry): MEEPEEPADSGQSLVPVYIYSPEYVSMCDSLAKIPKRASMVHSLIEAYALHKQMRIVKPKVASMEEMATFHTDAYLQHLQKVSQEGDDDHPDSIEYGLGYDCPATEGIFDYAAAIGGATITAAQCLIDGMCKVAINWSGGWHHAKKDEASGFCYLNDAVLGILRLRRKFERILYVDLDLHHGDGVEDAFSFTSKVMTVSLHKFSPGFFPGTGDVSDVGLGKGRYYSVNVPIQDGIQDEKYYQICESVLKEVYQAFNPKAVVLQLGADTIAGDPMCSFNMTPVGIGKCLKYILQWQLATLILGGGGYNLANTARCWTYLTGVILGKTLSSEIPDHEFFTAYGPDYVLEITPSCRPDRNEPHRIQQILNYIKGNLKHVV

HT-29 = test: Growth inhibition of human HT-29 cells after 96 hrs by MTT assay; format: functional
Histone deacetylase 2 = Histone deacetylase 2 (Homo sapiens, UniProt Q92769); test: Inhibition of recombinant human HDAC2 using Boc-Lys(Ac)-AMC as substrate preincubated for 15 mins followed by substrate addition measured after 60 mins by fluorescence-based assay
Histone deacetylase 11 = biological target: T2, Histone deacetylase 11 (Homo sapiens, UniProt Q96DB2); test: Inhibition of recombinant human HDAC11 using Boc-Lys(TFA)-AMC as substrate preincubated for 15 mins followed by substrate addition measured after 60 mins by fluorescence-based assay
T2 sequence (Q96DB2 whole entry): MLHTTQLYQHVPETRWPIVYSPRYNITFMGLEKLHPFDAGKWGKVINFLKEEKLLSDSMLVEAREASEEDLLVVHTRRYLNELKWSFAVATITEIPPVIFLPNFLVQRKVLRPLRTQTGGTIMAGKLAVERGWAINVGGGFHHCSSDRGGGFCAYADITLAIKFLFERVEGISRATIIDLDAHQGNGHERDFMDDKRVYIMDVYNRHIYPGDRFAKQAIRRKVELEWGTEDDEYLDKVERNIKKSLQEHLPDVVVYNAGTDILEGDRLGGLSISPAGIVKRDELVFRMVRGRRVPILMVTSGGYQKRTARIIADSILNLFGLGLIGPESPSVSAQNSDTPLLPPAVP

[2] = Cytotoxicity against HEK293 cells assessed as growth inhibition after 96 hrs by MTT assay; conditions: human
MCF7 = test: cells; format: functional; conditions: Homo sapiens, MCF7, 96 h
Description: Growth inhibition of human MCF7 cells after 96 hrs by MTT assay

Histone deacetylase 1 [3] = biological target: T3, Histone deacetylase 1 (Homo sapiens, UniProt Q13547); test: Inhibition of HDAC1 in human HCT116 cells assessed as increase in acetylated histone H3 level after 24 hrs by Western blot analysis; format: cell-based; conditions: HCT-116
[4] = biological target: T4, Protein deacetylase HDAC6 (Homo sapiens, UniProt Q9UBN7); test: Inhibition of recombinant human HDAC6 using Boc-Lys(Ac)-AMC as substrate preincubated for 15 mins followed by substrate addition measured after 60 mins by fluorescence-based assay
T4 sequence (Q9UBN7 whole entry): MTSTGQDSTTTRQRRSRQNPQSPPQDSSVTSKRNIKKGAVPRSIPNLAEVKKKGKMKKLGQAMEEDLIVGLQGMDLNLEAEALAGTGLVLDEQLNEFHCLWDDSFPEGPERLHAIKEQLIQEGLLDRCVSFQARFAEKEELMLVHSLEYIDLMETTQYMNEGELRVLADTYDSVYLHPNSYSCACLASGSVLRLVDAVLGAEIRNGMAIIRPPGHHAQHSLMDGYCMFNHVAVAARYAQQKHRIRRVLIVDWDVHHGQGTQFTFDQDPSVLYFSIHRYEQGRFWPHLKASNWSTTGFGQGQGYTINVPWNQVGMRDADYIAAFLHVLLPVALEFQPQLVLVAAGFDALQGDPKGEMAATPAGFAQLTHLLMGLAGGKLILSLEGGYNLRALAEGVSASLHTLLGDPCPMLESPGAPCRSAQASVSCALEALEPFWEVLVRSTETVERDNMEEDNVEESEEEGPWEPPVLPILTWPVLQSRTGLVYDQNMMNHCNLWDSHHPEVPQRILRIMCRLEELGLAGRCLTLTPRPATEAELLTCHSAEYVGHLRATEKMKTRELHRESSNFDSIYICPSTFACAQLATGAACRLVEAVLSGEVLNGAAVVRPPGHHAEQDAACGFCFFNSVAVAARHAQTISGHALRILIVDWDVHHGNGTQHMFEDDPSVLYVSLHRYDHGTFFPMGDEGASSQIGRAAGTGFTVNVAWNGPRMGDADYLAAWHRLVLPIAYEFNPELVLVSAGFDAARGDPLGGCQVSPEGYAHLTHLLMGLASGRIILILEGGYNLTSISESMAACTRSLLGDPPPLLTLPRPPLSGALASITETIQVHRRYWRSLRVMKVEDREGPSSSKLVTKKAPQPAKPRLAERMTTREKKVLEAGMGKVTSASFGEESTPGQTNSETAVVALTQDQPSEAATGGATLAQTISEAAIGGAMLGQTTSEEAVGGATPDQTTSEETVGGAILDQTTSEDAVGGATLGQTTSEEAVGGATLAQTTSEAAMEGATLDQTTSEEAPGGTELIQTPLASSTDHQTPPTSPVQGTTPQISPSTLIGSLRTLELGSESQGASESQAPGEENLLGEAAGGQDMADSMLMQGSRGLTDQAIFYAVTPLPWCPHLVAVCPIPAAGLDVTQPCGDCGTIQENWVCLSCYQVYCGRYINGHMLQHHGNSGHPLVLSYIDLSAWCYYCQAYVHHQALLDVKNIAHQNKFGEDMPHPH

[5] = biological target: T5, Protein deacetylase HDAC6 (Homo sapiens) (UniProt Q9UBN7); test: Inhibition of HDAC6 in human HCT116 cells assessed as increase in acetylated tubulin level after 24 hrs by Western blot analysis; format: cell-based; conditions: HCT-116
T5 sequence (whole entry): T4 sequence (Q9UBN7 whole entry)

cells [6] = format: functional; conditions: Homo sapiens, ASPC1, 96 h
Description: Growth inhibition of human Aspc-1 cells after 96 hrs by MTT assay

cells [7] = format: functional; conditions: Homo sapiens, HCT-116, 96 h
Description: Growth inhibition of human HCT116 cells after 96 hrs by MTT assay

MDA-MB-231 = test: cells; format: functional; conditions: Homo sapiens, MDA-MB-231, 96 h
Description: Growth inhibition of human MDA-MB-231 cells after 96 hrs by MTT assay

Histone deacetylase 4 = Histone deacetylase 4 (Homo sapiens, UniProt P56524); test: Inhibition of recombinant human HDAC4 using Boc-Lys(TFA)-AMC as substrate preincubated for 15 mins followed by substrate addition measured after 60 mins by fluorescence-based assay
Histone deacetylase 1 [8] = biological target: T3, Histone deacetylase 1; test: Inhibition of recombinant human HDAC1 using Boc-Lys(Ac)-AMC as substrate preincubated for 15 mins followed by substrate addition measured after 60 mins by fluorescence-based assay
Histone deacetylase = test: Inhibition of HDAC in human HeLa cell nuclear extract using Boc-Lys(Ac)-AMC as substrate preincubated for 15 mins followed by substrate addition measured after 60 mins by fluorescence-based assay
A549 = test: cells; format: functional; conditions: Homo sapiens, A549, 96 h
Description: Growth inhibition of human A549 cells after 96 hrs by MTT assay

[9] = Antitumor activity against human HCT116 cells xenografted in athymic nude mouse assessed as tumor growth inhibition at 40 mg/kg, ip qd administered for 14 days measured every other day during compound dosing; format: functional; conditions: HCT-116, ip, 336 h, read-out: TGI
HCT-116 = test: Antitumor activity against human HCT116 cells xenografted in ip dosed athymic nude mouse assessed as tumor growth inhibition qd administered for 14 days measured every other day during compound dosing; format: functional, organism-based
[10] = Antitumor activity against human HCT116 cells xenografted in athymic nude mouse assessed as tumor growth inhibition at 80 mg/kg, ip qd administered for 14 days measured every other day during compound dosing; format: functional; conditions: HCT-116, ip, 336 h, read-out: TGI
Mus musculus [11] = test: Toxicity in athymic nude mouse xenografted with human HCT116 cells assessed as reduction in body weight at 40 to 80 mg/kg, ip qd administered for 14 days measured every other day during compound dosing; format: organism-based, HCT-116; conditions: in vivo, 336 h
Mus musculus [12] = test: Toxicity in athymic nude mouse xenografted with human HCT116 cells assessed as mortality at 40 to 80 mg/kg, ip qd administered for 14 days measured every other day during compound dosing; format: organism-based, HCT-116; conditions: in vivo, 336 h
Mus musculus [13] = test: Toxicity in athymic nude mouse xenografted with human HCT116 cells assessed as mortality at 40 mg/kg, ip qd administered for 14 days measured every other day during compound dosing; format: organism-based, HCT-116; conditions: in vivo, 336 h
Mus musculus [14] = test: Toxicity in athymic nude mouse xenografted with human HCT116 cells assessed as reduction in body weight at 40 mg/kg, ip qd administered for 14 days measured every other day during compound dosing; format: organism-based, HCT-116; conditions: in vivo, 336 h

T3 sequence (Q13547 whole entry): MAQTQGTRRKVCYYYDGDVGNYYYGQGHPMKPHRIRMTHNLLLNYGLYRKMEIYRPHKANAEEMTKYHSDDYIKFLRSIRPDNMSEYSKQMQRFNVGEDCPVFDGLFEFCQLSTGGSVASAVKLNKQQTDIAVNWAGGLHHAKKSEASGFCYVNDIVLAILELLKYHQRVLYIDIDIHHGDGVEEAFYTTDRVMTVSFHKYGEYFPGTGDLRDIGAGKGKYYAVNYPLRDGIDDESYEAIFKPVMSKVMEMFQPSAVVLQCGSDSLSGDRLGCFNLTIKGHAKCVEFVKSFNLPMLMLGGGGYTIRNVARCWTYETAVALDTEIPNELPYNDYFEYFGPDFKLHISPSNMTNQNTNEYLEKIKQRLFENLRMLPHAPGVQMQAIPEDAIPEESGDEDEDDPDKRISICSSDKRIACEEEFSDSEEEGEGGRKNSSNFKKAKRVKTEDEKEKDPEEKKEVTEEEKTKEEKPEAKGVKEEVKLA
Chain of Histone deacetylase 2 (Q92769 whole entry): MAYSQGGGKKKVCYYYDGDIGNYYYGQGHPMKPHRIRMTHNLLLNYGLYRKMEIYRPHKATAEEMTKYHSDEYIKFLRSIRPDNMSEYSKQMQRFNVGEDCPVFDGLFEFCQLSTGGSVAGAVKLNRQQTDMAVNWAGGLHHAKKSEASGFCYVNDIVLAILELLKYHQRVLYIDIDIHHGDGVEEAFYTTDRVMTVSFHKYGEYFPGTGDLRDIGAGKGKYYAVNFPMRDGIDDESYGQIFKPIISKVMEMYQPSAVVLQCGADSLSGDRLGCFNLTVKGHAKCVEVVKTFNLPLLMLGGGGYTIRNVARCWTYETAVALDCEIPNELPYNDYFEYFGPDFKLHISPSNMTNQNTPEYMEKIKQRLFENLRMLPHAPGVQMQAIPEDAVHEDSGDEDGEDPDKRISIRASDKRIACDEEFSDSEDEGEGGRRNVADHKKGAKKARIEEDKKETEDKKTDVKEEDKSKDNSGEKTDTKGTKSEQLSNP
Chain of Histone deacetylase 3 (O15379 whole entry): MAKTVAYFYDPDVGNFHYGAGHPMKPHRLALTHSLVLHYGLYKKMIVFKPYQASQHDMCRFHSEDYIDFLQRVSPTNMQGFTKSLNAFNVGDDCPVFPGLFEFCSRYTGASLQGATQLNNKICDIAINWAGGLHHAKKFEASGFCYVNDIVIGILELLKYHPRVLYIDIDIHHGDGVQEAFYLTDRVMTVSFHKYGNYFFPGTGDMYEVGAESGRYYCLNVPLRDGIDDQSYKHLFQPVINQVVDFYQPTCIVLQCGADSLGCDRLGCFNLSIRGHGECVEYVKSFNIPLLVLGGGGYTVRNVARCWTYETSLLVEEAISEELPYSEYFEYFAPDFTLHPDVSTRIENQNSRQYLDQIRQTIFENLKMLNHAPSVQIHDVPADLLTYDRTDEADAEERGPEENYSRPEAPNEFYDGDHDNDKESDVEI
Chain of Histone deacetylase 4 (P56524 whole entry): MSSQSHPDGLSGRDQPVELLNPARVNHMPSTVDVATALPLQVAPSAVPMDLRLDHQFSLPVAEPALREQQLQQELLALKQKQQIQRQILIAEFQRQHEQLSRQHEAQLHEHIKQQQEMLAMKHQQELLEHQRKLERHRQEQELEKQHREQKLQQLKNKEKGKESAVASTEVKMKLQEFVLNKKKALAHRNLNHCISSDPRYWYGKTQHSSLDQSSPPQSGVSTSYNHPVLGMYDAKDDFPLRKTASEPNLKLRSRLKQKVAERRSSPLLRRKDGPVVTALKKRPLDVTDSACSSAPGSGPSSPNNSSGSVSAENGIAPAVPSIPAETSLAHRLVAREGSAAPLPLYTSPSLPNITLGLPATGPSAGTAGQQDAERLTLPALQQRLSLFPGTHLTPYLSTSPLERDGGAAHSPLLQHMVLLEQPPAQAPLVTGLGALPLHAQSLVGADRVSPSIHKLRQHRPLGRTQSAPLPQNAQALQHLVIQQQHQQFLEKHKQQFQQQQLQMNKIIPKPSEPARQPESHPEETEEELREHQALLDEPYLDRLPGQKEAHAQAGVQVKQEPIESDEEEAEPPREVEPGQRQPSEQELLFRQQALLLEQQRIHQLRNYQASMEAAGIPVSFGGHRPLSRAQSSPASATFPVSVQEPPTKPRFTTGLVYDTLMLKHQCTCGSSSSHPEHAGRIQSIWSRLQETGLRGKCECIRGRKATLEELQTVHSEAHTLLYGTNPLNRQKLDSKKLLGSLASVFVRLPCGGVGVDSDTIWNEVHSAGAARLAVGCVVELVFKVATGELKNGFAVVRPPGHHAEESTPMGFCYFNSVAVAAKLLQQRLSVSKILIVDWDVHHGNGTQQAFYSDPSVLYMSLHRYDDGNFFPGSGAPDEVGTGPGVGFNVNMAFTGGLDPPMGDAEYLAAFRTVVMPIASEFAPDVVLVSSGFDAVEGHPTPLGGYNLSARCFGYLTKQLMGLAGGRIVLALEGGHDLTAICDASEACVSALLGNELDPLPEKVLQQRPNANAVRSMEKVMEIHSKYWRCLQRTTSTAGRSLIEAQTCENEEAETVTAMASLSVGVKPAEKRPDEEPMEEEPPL

Row | GI50 (HT-29; Homo sapiens, HT-29, 96 h) [µM] | GI50 (MCF7) [µM] | inhibition (Histone deacetylase 1 [3]) | inhibition [5] | GI50 (MDA-MB-231) [µM] | GI50 (A549) [µM] | Compound | GI50 (cells [1]) [µM] | GI50 at 96 h [2] [µM] | GI50 (cells [6]) [µM] | GI50 (cells [7]) [µM] | inhibition in vivo at 40 mg/kg [9] [%] | other results
1 | 22 | 11.5 | Dose-dependent effect | Dose-dependent effect | 42.4 | 19.3 | O=C(NCCCCCCS)c1cc(-c2cccnc2)n[nH]1 | 9.4 | > 50 | 14.6 | 18.1 |  | IC50 (Histone deacetylase 3): 0.029 µM; IC50 (Histone deacetylase 8): > 10 µM; IC50 (Histone deacetylase 2): 0.221 µM; IC50 (Histone deacetylase 11): > 10 µM; IC50 [4]: 0.026 µM; IC50 (Histone deacetylase 4): > 10 µM; IC50 (Histone deacetylase 1 [8]): 0.052 µM; IC50 (Histone deacetylase): 0.015 µM
2 | 5.29 | 3.79 | Dose-dependent effect | Dose-dependent effect | 10.3 | 5.31 | O=C(NCCCCCCSSCCCCCCNC(=O)c1cc(-c2cccnc2)n[nH]1)c1cc(-c2cccnc2)n[nH]1 | 1.25 | 13.5 | 3.6 | 3.03 | 28 | 
3 |  |  |  |  |  |  | O=C(CCCCCCC(=O)Nc1ccccc1)NO [VORINOSTAT] |  |  |  |  |  | GI50 (HT-29): 2.88 µM; Activity (Mus musculus [13]): Non-toxic; Activity (Mus musculus [14]): Non-toxic

Row | Compound | GI50 (HT-29; Homo sapiens, HT-29, 96 h) [µM] | GI50 (MCF7) [µM] | inhibition (Histone deacetylase 1 [3]) | inhibition [5] | GI50 (MDA-MB-231) [µM] | GI50 (A549) [µM] | GI50 (cells [1]) [µM] | GI50 at 96 h [2] [µM] | GI50 (cells [6]) [µM] | GI50 (cells [7]) [µM] | inhibition in vivo at 40 mg/kg [9] [%] | other results
4 | O=C(NCCCCCCSSCCCCCCNC(=O)c1cc(-c2ccncc2)n[nH]1)c1cc(-c2ccncc2)n[nH]1 | 6.92 | 7.15 | Dose-dependent effect | Dose-dependent effect | 27.3 | 6.07 | 4.74 | 14.8 | 25.3 | 8.93 | 27 | inhibition (HCT-116): Dose-dependent effect; inhibition in vivo at 80 mg/kg [10]: 48%; Activity (Mus musculus [11]): Non-toxic; Activity (Mus musculus [12]): Non-toxic
